Data: US5525627A, “Esters of acyl carnitines with long-chain aliphatic alcohols and pharmaceutical compositions containing same having antimycotic activity” (Sigma-Tau Industrie Farmaceutiche Riunite S.p.A., priority 1992, dated 1996)
Read-outs that look alike come from different tables or passages of the source.

Tests used:
yeast-like fungi = experiment: MIC / MFC for yeast-like fungi, all strains; format: cell-based, Candida, Cryptococcus, Saccharomyces, Torulopsis; conditions: read-out: Mean MIC values
Method: (§1) The following strains were used (the number of strains is in brackets): Candida (13); Criptococcus (2); Saccharormyces (1); Torulopsis (1).
(§2) Yeast Nitrogen Base supplemented with 0.15% asparagine and 1.0% glucose (as carbon source) was the medium utilized in the assays.
(§3) This medium was buffered with 0.165 M 2-(N-morpholino) propane sulfonic acid (MOPS), a non-chelating buffer. […]
(§4) The inoculum was prepared from an overnight broth culture (a 48-hour culture only for Cryptococcus) in Sabouraud broth and appropriately diluted to yield a final suspension containing approximately 5.0×10^6 Colony Forming Units per ml (CFU/ml), when compared to the Mc Farland's standard control (BRAY W. E., Clinical Laboratory Methods, 5th Ed. C. V. MOSBY, St. Louis, Mo, 1957).
(§5) After further diluting (1:50), a […] volume of such fungal suspensions and an equal volume of the substance solutions were distributed into each well of a microtiter plate (96 wells, round bottom). Such a procedure eventually allowed for an "in vitro" antimycotic activity assay utilizing final fungal inocula of approximately 5.0×10^4 CFU/ml.
(§6) The minimal fungicidal concentration was evaluated by spot-transferring onto Petri dishes, containing Sabouraud agar, 0.01-ml volumes of all the samples showing no visible fungal growth.

[1] = tested on: Torulopsis candida (D.S.); experiment: MIC for yeast and yeast-like strains; format: cell-based; conditions: Suzukiozyma candida; 48 hours, 35° C.; read-out: Minimal Inhibitory Concentration (MIC)
Method: as §1, §2, §3, §4, §5

[2] = tested on: Candida tropicalis (5705); experiment: MIC for yeast and yeast-like strains; format: cell-based; conditions: 48 hours, 35° C., read-out: Minimal Inhibitory Concentration (MIC)
Method: as §1, §2, §3, §4, §5

[3] = tested on: Cryptococcus neoformans (4711); experiment: MIC for yeast and yeast-like strains; format: cell-based; conditions: 48 hours, 35° C., read-out: Minimal Inhibitory Concentration (MIC)
Method: as §1, §2, §3, §4, §5

Candida albicans (Ca 2) = experiment: MIC for yeast and yeast-like strains; format: cell-based; conditions: 48 hours, 35° C., read-out: Minimal Inhibitory Concentration (MIC)
Method: as §1, §2, §3, §4, §5

Candida albicans (A 54) = experiment: MIC for yeast and yeast-like strains; format: cell-based; conditions: 48 hours, 35° C., read-out: Minimal Inhibitory Concentration (MIC)
Method: as §1, §2, §3, §4, §5

filamentous fungi = experiment: MIC / MFC for filamentous fungi, all strains; format: cell-based, Aspergillus, Fusarium, Mucor, Penicillium; conditions: read-out: Mean MIC values
Text: (§7) The following strains were used (the number of strains is in brackets): Aspergillus (5); Fusarium (1); Mucor (1); Penicillium (1).
(§8) The tested substances were: ST 712, ST 722, ST 982, ST 983, ST 1000, ST 1001, ST 1032, ST 1033, ST 1034, ST 1036, ST 1037, ST 1038, ST 1050, ST 1051, ST 1052, ST 1053. The assay medium was the same as the one used in the previous study. The conidia from 72-hour cultures in Sabouraud agar, collected by washing with Sabouraud medium and Tween 80 (one drop of Tween per 10 ml of medium), were utilized as inoculum (5.0×10^4 CFU/ml).
(§9) The assay was performed using the same procedure as described for yeast-like fungi.
(§10) Also the evaluation of MIC and MFC was as reported previously.

Penicillium sp. (1302) = experiment: MIC for filamentous fungi; format: cell-based; conditions: read-out: Minimal Inhibitory Concentration (MIC)
Text: as §7, §8, §9, §10

Mucor mucedo (ATCC 7941) = experiment: MIC for filamentous fungi; format: cell-based; conditions: ATCC7941, read-out: Minimal Inhibitory Concentration (MIC)
Text: as §7, §8, §9, §10

[4] = tested on: Aspergillus niger (ATCC 16404); experiment: MIC for filamentous fungi; format: cell-based; conditions: ATCC16404, read-out: Minimal Inhibitory Concentration (MIC)
Text: as §7, §8, §9, §10

Fusarium sp. (ISS 1) = experiment: MIC for filamentous fungi; format: cell-based; conditions: read-out: Minimal Inhibitory Concentration (MIC)
Text: as §7, §8, §9, §10

[5] = tested on: Aspergillus fumigatus (ATCC 28212); experiment: MIC for filamentous fungi; format: cell-based; conditions: ATCC28212, read-out: Minimal Inhibitory Concentration (MIC)
Text: as §7, §8, §9, §10

Candida krusei (ISS 1) = experiment: MIC for yeast and yeast-like strains; format: cell-based; conditions: Pichia kudriavzevii; 48 hours, 35° C.; read-out: Minimal Inhibitory Concentration (MIC)
Method: as §1, §2, §3, §4, §5

Candida glabrata (ISS 1) = experiment: MIC for yeast and yeast-like strains; format: cell-based; conditions: Nakaseomyces glabratus; 48 hours, 35° C.; read-out: Minimal Inhibitory Concentration (MIC)
Method: as §1, §2
(§11) This medium was buffered with 0.165 M 2-(N-morpholino) propane sulfonic acid (MOPS), a non-chelating buffer.
(§12) Antimicrob. Agents Cheroother. Aug. 34.8:1542-1545).
as §4, §5

Candida albicans (ISS 1) = experiment: MIC for yeast and yeast-like strains; format: cell-based; conditions: 48 hours, 35° C., read-out: Minimal Inhibitory Concentration (MIC)
Method: as §1, §2, §11, §12, §4, §5

[6] = tested on: Candida parapsilosis (ISS 1); experiment: MIC for yeast and yeast-like strains; format: cell-based; conditions: Lodderomyces parapsilosis; 48 hours, 35° C.; read-out: Minimal Inhibitory Concentration (MIC)
Method: as §1, §2, §11, §12, §4, §5

[7] = tested on: Candida guilliermondii (ISS 1); experiment: MIC for yeast and yeast-like strains; format: cell-based; conditions: Meyerozyma guilliermondii; 48 hours, 35° C.; read-out: Minimal Inhibitory Concentration (MIC)
Method: as §1, §2, §11, §12, §4, §5

[8] = tested on: Candida tropicalis (ISS 1); experiment: MIC for yeast and yeast-like strains; format: cell-based; conditions: 48 hours, 35° C., read-out: Minimal Inhibitory Concentration (MIC)
Method: as §1, §2, §11, §12, §4, §5

[9] = tested on: Saccharomyces cerevisiae (ATCC 7752); experiment: MIC for yeast and yeast-like strains; format: cell-based; conditions: ATCC7752, 48 hours, 35° C., read-out: Minimal Inhibitory Concentration (MIC)
Method: as §1, §2, §3, §4, §5

Candida albicans (562) = experiment: MIC for yeast and yeast-like strains; format: cell-based; conditions: 48 hours, 35° C., read-out: Minimal Inhibitory Concentration (MIC)
Method: as §1, §2, §3, §4, §5

[10] = tested on: Cryptococcus neoformans (ISS 1); experiment: MIC for yeast and yeast-like strains; format: cell-based; conditions: 48 hours, 35° C., read-out: Minimal Inhibitory Concentration (MIC)
Method: as §1, §2, §11, §12, §4, §5

[11] = tested on: Candida pseudotropicalis (EC 1); experiment: MIC for yeast and yeast-like strains; format: cell-based; conditions: Kluyveromyces marxianus; 48 hours, 35° C.; read-out: Minimal Inhibitory Concentration (MIC)
Method: as §1, §2, §11, §12, §4, §5

[12] = tested on: Candida albicans (ATCC 2091); experiment: MIC for yeast and yeast-like strains; format: cell-based; conditions: ATCC2091, 48 hours, 35° C., read-out: Minimal Inhibitory Concentration (MIC)
Method: as §1, §2, §11, §12, §4, §5

[13] = tested on: Aspergillus fumigatus (1/A); experiment: MIC for filamentous fungi; format: cell-based; conditions: read-out: Minimal Inhibitory Concentration (MIC)
Text: as §7, §8, §9, §10

[14] = tested on: Aspergillus fumigatus (2/A); experiment: MIC for filamentous fungi; format: cell-based; conditions: read-out: Minimal Inhibitory Concentration (MIC)
Text: as §7, §8, §9, §10

[15] = tested on: Aspergillus fumigatus (C/1); experiment: MIC for filamentous fungi; format: cell-based; conditions: read-out: Minimal Inhibitory Concentration (MIC)
Text: as §7, §8, §9, §10

Candida albicans (PG) = experiment: MIC and MFC for yeast and yeast-like strains; format: cell-based; conditions: 48 hours, 35° C., read-out: Minimal Inhibitory Concentration (MIC)
Method: as §1, §2, §11, §12, §4, §5, §6

SMILES	MIC [1] [µg/mL]	MIC [2] [µg/mL]	MIC [3] [µg/mL]	MIC (Candida albicans (Ca 2)) [µg/mL]	MIC (Candida albicans (A 54)) [µg/mL]	MIC (Penicillium sp. (1302)) [µg/mL]	MIC (Mucor mucedo (ATCC 7941)) [µg/mL]	MIC [4] [µg/mL]	MIC (Fusarium sp. (ISS 1)) [µg/mL]	MIC [5] [µg/mL]	MIC (yeast-like fungi; versus susceptible strains) [µg/mL]	MIC (filamentous fungi; versus susceptible strains) [µg/mL]	MIC (Candida krusei (ISS 1)) [µg/mL]	MIC (Candida glabrata (ISS 1)) [µg/mL]	MIC (Candida albicans (ISS 1)) [µg/mL]	MIC [6] [µg/mL]	MIC [7] [µg/mL]	MIC [8] [µg/mL]	also measured
CCCCCCCCCCCOC(=O)C[C@H](C[N+](C)(C)C)OC(=O)CCCCCCCCCC [ST 982]	> 100	> 100	> 100	> 100	> 100	> 100	> 100	> 100	> 100	> 100									MIC (yeast-like fungi): > 100 µg/mL; MIC (filamentous fungi): > 100 µg/mL
CCCCCCCCCCCCCCCC(=O)O[C@H](CC(=O)OCCCCCCCCCCC)C[N+](C)(C)C [ST 983]	> 100	> 100	> 100	> 100	> 100	> 100	> 100	> 100	> 100	> 100	> 100	> 100							
CCCCCCCCCCCOC(=O)C[C@H](C[N+](C)(C)C)OC(=O)CCCCCCC [ST 1000]	6.25		1.56	1.56	6.25	3.12	6.25	3.12	3.12	3.12	4.21	3.76	1.56	6.25	3.12	6.25	6.25	3.12	
CCCCCCCCCCCCCCCCOC(=O)C[C@H](C[N+](C)(C)C)OC(=O)CC(C)C [ST 1001]	6.25	6.25	1.56	3.12	3.12	6.25	> 100	12.5	12.5	6.25	6.24	7.03	6.25	6.25	12.5	6.25	6.25	12.5	MIC [9]: 6.25 µg/mL; MIC (Candida albicans (562)): 3.12 µg/mL; MIC [10]: 3.12 µg/mL; MIC [11]: 12.5 µg/mL; MIC [12]: 6.25 µg/mL; MIC [13]: 6.25 µg/mL; MIC [14]: 6.25 µg/mL; MIC [15]: 6.25 µg/mL; MIC (Candida albicans (PG)): 6.25 µg/mL
